Measured values: ChEMBL document CHEMBL5729292, “Bromodomain inhibitor compound and use thereof” (2022)

Target: Bromodomain-containing protein 4 (Homo sapiens, UniProt O60885)
Assay: Inhibitory Activity Assay of BRD4 Small Molecule Compounds: AlphaScreen kit (Perkin Elmer) was used to detect effect of the compounds on binding of BRD4 bromodomain to acetylated histone H4 polypeptide. […] Each of fusion proteins containing (His)6tag can be recognized and bound by Ni2+. […] The donor microbeads were coated with streptavidin and can bind to biotinylated acetylated H4 polypeptide. The acceptor microbeads were coated with Ni2+ ions and can bind to the BD1 protein with (His)6tag. When the BD1 protein recognized the acetylated H4 polypeptide, the donor microbeads and the acceptor microbeads can be brought closer to a certain distance. Within this range, the donor microbeads can produce singlet oxygen after being irradiated with a 680 nm excitation light, and transfer the singlet oxygen to the acceptor microbeads. After a series of cascade chemical reactions, the acceptor microbeads will generate an emission wave of 520-620 nm, which in turn can be detected a signal. In this experiment, the test system was 20 μL, and the compound needs to be diluted in buffer 1 (20 mM HEPES pH 7.4, 150 mM NaCl, 1 mM dithiothreitol). First, a solution of 20 mM compound was consecutively diluted twice, each in 10 times, totally in 100 times to a concentration of 200 μM. […] The recombinant BD1 protein solution and the acetylated histone H4 polypeptide were diluted in the buffer 2 (20 mM HEPES pH 7.4, 150 mM NaCl, 0.01% Triton X-100, 0.1% bovine serum protein (w/v, Sigma), 1 mM dithiothreitol) to 100 nM and 100 nM respectively, to obtain a 8×BD1 protein working solution and a 4× acetylated histone H4 polypeptide working solution. The donor microbeads and the acceptor microbeads are diluted together in the buffer 2, both in the ratio of 1:100, to obtain a 2× microbead mixed working solution. The plate was added with 2.5 μL of BD1 protein working solution and incubated with the compound for 20 min at room temperature, and then added with 5 μL of acetylated histone H4 polypeptide working solution and incubated at room temperature for 5 min, and finally added with 10 μL of microbead mixed working solution and incubated at room temperature for 60 min. […] IC50 values of the compounds at different concentrations for inhibiting the binding of BD1 protein to acetylated H4 polypeptide were calculated by fitting using GraphPad Prism 5.0 software.

Row | IC50 | SMILES
1 | 76.9 nM | Cc1cc(-c2cc(NS(C)(=O)=O)ccc2Oc2ccccc2)n2c1C(=O)NCC2
2 | 132 nM | Cc1cc(-c2cc(S(C)(=O)=O)ccc2Oc2ccc(F)cc2F)n2cc[nH]c(=O)c12
3 | 905 nM | Cc1cc(-c2ccccc2Oc2ccccc2)n2cc[nH]c(=O)c12
4 | 161 nM | Cc1cc(-c2cc(CS(C)(=O)=O)ccc2Nc2ccc(F)cc2F)n2cc[nH]c(=O)c12
5 | 910 nM | Cc1cc(-c2ccccc2Oc2ccccc2)n2nc[nH]c(=O)c12
6 | 114 nM | Cc1cc(-c2cc(NS(C)(=O)=O)ccc2Oc2ccccc2)n2cn[nH]c(=O)c12
7 | 119 nM | Cc1ccccc1Oc1ccc(NS(C)(=O)=O)cc1-c1cc(C)c2c(=O)[nH]ccn12
8 | 124 nM | Cc1cc(-c2cc(NS(C)(=O)=O)ccc2OC2CCOCC2)n2cn[nH]c(=O)c12
9 | 471 nM | Cc1cc(-c2cc(NS(C)(=O)=O)ccc2OCC2CC2)n2cn[nH]c(=O)c12
10 | 134 nM | Cc1cc(-c2cc(S(C)(=O)=O)ccc2Oc2ccccc2)n2cc[nH]c(=O)c12
11 | 92.6 nM | Cc1cc(-c2cc(NS(C)(=O)=O)ccc2Oc2ccc(F)cc2F)n2cn[nH]c(=O)c12
12 | 138 nM | Cc1cc(-c2cc(CS(C)(=O)=O)ccc2Nc2ccccc2)n2cc[nH]c(=O)c12
13 | 131 nM | CCS(=O)(=O)c1ccc(Oc2ccccc2C)c(-c2cc(C)c3c(=O)[nH]ccn23)c1
14 | 4.5 nM | Cc1cc(-c2cc(CS(C)(=O)=O)ccc2Oc2ccc(F)cc2F)n2cn[nH]c(=O)c12
15 | 434 nM | Cc1cc(-c2cc(NS(C)(=O)=O)ccc2Oc2ccccc2)n2nc[nH]c(=O)c12
